Entries after “also recorded” stand apart in the source; their conditions may differ.
Test: particle size and polydispersity index of drug micelles over time (ZetaSizer)
Type: physicochemical
Details: for change of particle size and polydispersity index over time: 0-24 h
Procedure: Micellar size was measured using a ZetaSizer from Malvern Panalytical.
A stock solution of docetaxel in methanol was mixed with a stock solution of compound 1 in a round bottom flask. The mixture was evaporated to dryness in a rotary evaporator. Final drying was performed in a desiccator to remove residual solvent. Hydration of the dried film was performed by adding water for injection (1.0 mL) to a concentration of 1 mg/mL of docetaxel. The resulting solution was filtered through a 0.22 μm sterile filter and further diluted with 0.9% sodium chloride solution to 0.5 mg/mL of docetaxel. […]
A stock solution of cyclosporin in methanol was mixed with a stock solution of compound 1 in a round bottom flask. The mixture was evaporated to dryness in a rotary evaporator. Final drying was performed in a desiccator to remove residual solvent. Hydration of the dried film was performed by adding water for injection (1.0 mL) to a concentration of 1 mg/mL of cyclosporin. The resulting solution was filtered through a 0.22 μm sterile filter and further diluted with 0.9% sodium chloride solution to 0.5 mg/mL of cyclosporin. The final weight ratio of cyclosporin to micelle forming agent was 1:3.
A stock solution of docetaxel in methanol was mixed with a stock solution of compound 3 in a round bottom flask. The mixture was evaporated to dryness in a rotary evaporator. Final drying was performed in a desiccator to remove residual solvent. Hydration of the dried film was performed by adding water for injection (1.0 mL) to a concentration of 1 mg/mL of docetaxel. The resulting solution was filtered through a 0.22 μm sterile filter and further diluted with 0.9% sodium chloride solution to 0.5 mg/mL of Docetaxel. The final weight ratio of docetaxel to micelle forming agent was 1:3.
A stock solution of cyclosporin in methanol was mixed with a stock solution of compound 3 in a round bottom flask. The mixture was evaporated to dryness in a rotary evaporator. Final drying was performed in a desiccator to remove residual solvent. Hydration of the dried film was performed by adding water for injection (1.0 mL) to a concentration of 1 mg/mL of cyclosporin. The resulting solution was filtered through a 0.22 μm sterile filter and further diluted with 0.9% sodium chloride solution to 0.5 mg/mL of cyclosporin. The final weight ratio of cyclosporin to micelle forming agent was 1:3.
A stock solution of docetaxel in methanol was mixed with a stock solution of compound 4 in a round bottom flask. The mixture was evaporated to dryness in a rotary evaporator. Final drying was performed in a desiccator to remove residual solvent. Hydration of the dried film was performed by adding water for injection (1.0 mL) to a concentration of 1 mg/mL of docetaxel. The resulting solution was filtered through a 0.22 μm sterile filter and further diluted with 0.9% sodium chloride solution to 0.5 mg/mL of docetaxel. […]
A stock solution of docetaxel in methanol was mixed with a stock solution of compound 5 in a round bottom flask. The mixture was evaporated to dryness in a rotary evaporator. Final drying was performed in a desiccator to remove residual solvent. Hydration of the dried film was performed by adding water for injection (1.0 mL) to a concentration of 1 mg/mL of docetaxel. The resulting solution was filtered through a 0.22 μm sterile filter and further diluted with 0.9% sodium chloride solution to 0.5 mg/mL of docetaxel. The final weight ratio of docetaxel to micelle forming agent was 1:3.
A stock solution of cabazitaxel in methanol was mixed with a stock solution of compound 5 in a round bottom flask. The mixture was evaporated to dryness in a rotary evaporator. Final drying was performed in a desiccator to remove residual solvent. Hydration of the dried film was performed by adding water for injection (1.0 mL) to a concentration of 1 mg/mL of cabazitaxel. […]

[1] = cyclosporin:compound 1:3, cyclosporin 0.5 mg/mL
[2] = cyclosporin:compound 1:3, cyclosporin 0.5 mg/mL, time 0 h
[3] = cyclosporin:compound 1:3, cyclosporin 0.5 mg/mL, time 1 h
[4] = cyclosporin:compound 1:3, cyclosporin 0.5 mg/mL, time 2 h
[5] = cyclosporin:compound 1:3, cyclosporin 0.5 mg/mL, time 4 h
[6] = cyclosporin:compound 1:3, cyclosporin 0.5 mg/mL, time 6 h
[7] = cyclosporin:compound 1:3, cyclosporin 0.5 mg/mL, time 24 h
[8] = docetaxel:compound 1:5, docetaxel 0.5 mg/mL, time 0 h
[9] = docetaxel:compound 1:5, docetaxel 0.5 mg/mL, time 1 h
[10] = docetaxel:compound 1:5, docetaxel 0.5 mg/mL, time 2 h
[11] = docetaxel:compound 1:5, docetaxel 0.5 mg/mL, time 4 h
[12] = docetaxel:compound 1:5, docetaxel 0.5 mg/mL, time 6 h
[13] = docetaxel:compound 1:5, docetaxel 0.5 mg/mL, time 24 h
[14] = docetaxel:compound 1:3, docetaxel 0.5 mg/mL, time 0 h
[15] = docetaxel:compound 1:3, docetaxel 0.5 mg/mL, time 1 h
[16] = docetaxel:compound 1:3, docetaxel 0.5 mg/mL, time 2 h
[17] = docetaxel:compound 1:3, docetaxel 0.5 mg/mL, time 4 h
[18] = docetaxel:compound 1:3, docetaxel 0.5 mg/mL, time 6 h
[19] = docetaxel:compound 1:3, docetaxel 0.5 mg/mL, time 24 h

Row | Structure (SMILES) | change of particle size and polydispersity index over time [1] | Particle size [2] [nm] | Polydispersity index [2] | Particle size [3] [nm] | Polydispersity index [3] | Particle size [4] [nm] | Polydispersity index [4] | Particle size [5] [nm] | Polydispersity index [5] | Particle size [6] [nm] | Polydispersity index [6] | Particle size [7] [nm] | Polydispersity index [7] | further results
1 | COc1cc(C)c(/C=C/C(C)=C/C=C/C(C)=C/C(=O)N(CCS(=O)(=O)[O-])C2CCCCC2)c(C)c1C.[Na+] [Compound 1] | Small increases in the particle size and variations of polydispersity index over time were noted; also recorded: The changes were within acceptable range | 30.71 | 0.10 | 44.70 | 0.22 | 41.29 | 0.10 | 44.53 | 0.10 | 49.61 | 0.19 | 51.37 | 0.14 | change of particle size and polydispersity index over time (docetaxel:compound 1:5, docetaxel 0.5 mg/mL): Small increases in the particle size and polydispersity index over time were noted; also recorded: The changes were within acceptable range; Particle size [8]: 30.77 nm; Polydispersity index [8]: 0.10; Particle size [9]: 36.60 nm; Polydispersity index [9]: 0.16; Particle size [10]: 39.44 nm; Polydispersity index [10]: 0.16; Particle size [11]: 41.38 nm; Polydispersity index [11]: 0.18; Particle size [12]: 41.19 nm; Polydispersity index [12]: 0.20; Particle size [13]: 43.98 nm; Polydispersity index [13]: 0.21
2 | COc1cc(C)c(/C=C/C(C)=C/C=C/C(C)=C/C(=O)N(C)CCS(=O)(=O)[O-])c(C)c1C.[Na+] [Compound 3] | Small variations in the particle size and polydispersity index over time were noted; also recorded: The changes were within acceptable range | 8.46 | 0.31 | 6.77 | 0.21 | 6.60 | 0.19 | 6.58 | 0.18 | 6.68 | 0.21 | 7.39 | 0.32 | change of particle size and polydispersity index over time (docetaxel:compound 1:3, docetaxel 0.5 mg/mL): Small variations in the particle size and polydispersity index over time were noted; also recorded: The changes were within acceptable range; Particle size [14]: 6.19 nm; Polydispersity index [14]: 0.11; Particle size [15]: 7.19 nm; Polydispersity index [15]: 0.11; Particle size [16]: 10.06 nm; Polydispersity index [16]: 0.26; Particle size [17]: 10.18 nm; Polydispersity index [17]: 0.27; Particle size [18]: 10.25 nm; Polydispersity index [18]: 0.27; Particle size [19]: 6.20 nm; Polydispersity index [19]: 0.14

Source: patent US20260337156A1, “SOLUBILIZING COMPOUNDS” (Vivesto AB, priority 2022, published 2026)
